# Measured values reported in patent US5037957A, “Cysteine proteinase inhibitor” (priority 1987, dated 1991).
# Legend:
# group-A streptococci [1] = settings: 0.2 mg LVG intraperitoneally 45 min after lethal dose of group-A streptococci; five mice per group; none of the five controls alive
# Protocol: Ten mice were injected intraperitoneally with lethal doses of group-A streptococci. Five of them received after a period of 45 min. 0.2 mg LVG in 0.5 ml 1% dimethyl sulfoxide in physiological sterile saline by a second intraperitoneal injection.
# trypsin = trypsin (Bos taurus, UniProt P00760); settings: 250-fold molar excess, even after incubation for one hour
# Protocol: Trypsin activity at pH 7.5 was measured at room temperature (22° C.) on samples in buffer with a final concentration of 25 mN Tris/25 mM CaCl2 The reaction was started by the addition of Bz-DL-Arg-pNA to 2.5 mN final concentration and stopped after 10 minutes by the addition of an equal volume of 50% (v/v) HAc. Released paranitroaniline was meausred spectrophotometrically (Perkin-Elmer 550S) at 405 nm. Absorbancy values for blank (HAc addition before enzyme/substrate addition) were subtracted before evaluation.
# papain = target: T1, papain (Carica papaya, UniProt P00784); type: biochemical; settings: for apparent rate constant (k'+2, second order) for inactivation of papain: 12-fold molar excess of inhibitor, papain 2×10^-8 M, pH 6.5, 22° C
# T1 construct: purchased Sigma type III
# T1 sequence (P00784 134-345): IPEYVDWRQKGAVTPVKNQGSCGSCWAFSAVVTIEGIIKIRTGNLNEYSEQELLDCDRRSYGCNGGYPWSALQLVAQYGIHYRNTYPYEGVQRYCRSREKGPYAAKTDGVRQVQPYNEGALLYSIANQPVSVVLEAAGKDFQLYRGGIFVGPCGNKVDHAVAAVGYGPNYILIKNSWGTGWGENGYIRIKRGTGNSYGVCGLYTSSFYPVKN
# Protocol: Activity determination of papain was performed according to Barrett et al (ibid.), using Z-Phe-Arg-NHMec as substrate in 0.1M phosphate buffer, pH 6.5/1 mM DTT/1 mM EDTA at room temperature (22° C). All test dilutions were performed in 0.01% Brij 35. The reaction was started by substrate addition (20 μM final concentration) and stopped 10 minutes later by the addition of an equal volume of 0.1M NaCH2 Cl/NaAc, pH 4.3. Released fluorogen product was measured in a Perkin-Elmer MPF-43A spectrofluorimeter (excitation 360 nm, emission 460 nm) against a blank with the same contents as the test solution where chloroacetate had been added before the addition of enzyme/substrate.
# The molar active concentration of the papain solution used was determined by titration with E-64 (Barrett et al., ibid.). Stock solutions (1 mM) of LVG and VG were prepared by weighing 10 μmol of the respective peptidyl diazomethyl ketone which was thereafter dissolved in 500 μl acetonitrile (LVG) or 100 μl DMSO (VG), whereupon the volumes were adjusted to 10 ml with water. The exact concentration of peptidyl diazomethyl ketone was experimentally established, such that the reaction proceeded within a reasonable time with regard to the measuring technique used. Enzyme (2×10^-8 M final concentration) and peptidyl diazomethyl ketone were mixed at zero time. 25 μl samples were withdrawn at suitable times (15 s-10 min.) and therafter immediately added to mixtures for enzyme activity determination (see above). The dilution then obtained efficiently stopped continued reaction between enzyme and peptidyl diazomethyl ketone.
# Evaluation of experimental data was made in the manner described by Barret et al. (ibid.), where
# When i>>e, the following equation applies to the kinetics of inactivation: [formula] where ao is enzyme activity (here measured as amount of released fluorogen product from the substrate Z-Phe-Arg-NHMec) at zero time, and at is enzyme activity at time t.
# The apparent rate constant k'+2 (second order) for the inactivation in the scheme
# was caculated as kobs /i.
# Papain was incubated with LVG and VG in a 12-fold molar excess, and samples were withdrawn at different times for determining residual enzyme activity.
# human calpain = human calpain (Homo sapiens, UniProt P07384); settings: calpain 2.5 μg/ml, 30 min at 37° C, pH 7.5
# Protocol: Isolated human calpain (0.15 mg/ml) in 20 mM Tris buffer, pH 7.5/5 mM CaCl2 /6 mM dithiothreitol was supplied with a substrate (0.4% casein in 0.1 M imidazole buffer, pH 7.5/5 mM CaCl2 /6 mM dithiothreitol) and different amounts of LVG. After incubation for 30 min. at 37° C., the reaction was stopped by the addition of trichloroacetic acid to a final concentration of 2.5%, and the samples were centrifuged, whereupon the absorption of the supernatant at 280 nm was measured.
# group-A streptococci [2] = tested on: group-A streptococci
# Protocol: Group-A streptococci were cultured on blood agar discs as in routine diagnosis for determining sensitivity to antibiotics. The discs applied on the culture gel and used for supplying different types of known antibiotics were this time soaked instead with 20 μl of a solution having an LVG concentration of 1 mM. […] (MIC=minimal inhibiting concentration).
# streptococcal proteinase = streptococcal proteinase (Streptococcus pyogenes serotype M1, UniProt P0C0J1); settings: proteinase 0.0625 mg/ml, 5 min preincubation at 37° C, azocasein 15 min
# Protocol: The isolated streptococcal proteinase (15 mg/ml) was diluted to 0.0625 mg/ml with 0.4M phosphate buffer, pH 6.5/4 mM EDTA/4 mM DTT and then activated by incubation at 37° C. for two hours. To a constant volume of the active streptococcal proteinase was thereafter added a constant volume of LVG solutions with increasing LVG concentration. After incubation for 5 min. at 37° C., the substrate azocasein was added and after additional incubation for exactly 15 min. at 37° C., the reaction was stopped by the addition of 20% TCA (trichloroacetic acid). The samples were centrifuged and the absorbancy of the supernatant was read at 366 nm.
Substance,mice still alive after one day (group-A streptococci [1]),inhibition of trypsin enzyme activity (trypsin),"apparent rate constant (k'+2, second order) for inactivation of papain (papain) [M⁻¹ s⁻¹]",effectiveness as papain inhibitor relative to VG (papain; LVG versus VG),final concentration of LVG giving complete inhibition of calpain (human calpain) [µM],effect on bacterial growth when a molar excess of isolated streptococcal proteinase was added to the LVG solution (group-A streptococci [2]; LVG solution premixed with molar excess of streptococcal proteinase before application to cultures),"inhibition of growth of group-A streptococci on blood agar (group-A streptococci [2]; discs soaked with 20 μl of 1 mM LVG, all tested isolates and reference strains)",MIC (minimal inhibiting concentration) for group-A streptococci (group-A streptococci [2]; growth in free solution),LVG concentration sufficient to give total inhibition of streptococcal proteinase activity (streptococcal proteinase) [µM],inhibition of papain (papain),behaviour as substrate for papain (papain; cleaved at the glycine-glycine peptide bond)
N-benzyloxycarbonyl-leucyl-valyl-glycine diazomethyl ketone [LVG],five,no inhibition,300000,about 100 times,1,no effect on the bacterial growth,effectively inhibited in growth,about 1 μg/l,10,–,–
N-t-butyloxycarbonyl-valyl-glycine diazomethyl ketone [VG],–,no inhibition,5000,–,–,–,–,–,–,–,–
"synthetic peptide corresponding to position 4-21 in cystatin C: synthetic peptide corresponding to position 4-21 in cystatin C (synthesized on request by Ferring AB, Malmo, Sweden) (GKPPRLVGGPMDASVEEE; UniProt P01034 30-47, looked up, fragment) [reference compound]",–,–,–,–,–,–,–,–,–,does not at all inhibit,excellent substrate
